# According to US20020137929A1, “1 - (3-heterocyclylphenyl) isothiourea, -isourea, -guanidine and -amidine herbicidal agents” (Intellectual Property Department, BASF Aktiengesellschaft, priority 1998, published 2002):
# Experiments:
# [1] = tested on: CHEAL (Lambsquarters, Common); assay: Preemergence herbicidal evaluation; assay type: in vivo, Chenopodium album; details: rated 4-5 weeks after treatment
# In short: (§1)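 Steps: mix seeds into potting soil; plant atop ~1 inch soil; spray compound in aqueous acetone (~0.0156-0.500 kg/ha equivalent); maintain in greenhouse with watering; rate visually 0-9 versus control at 4-5 weeks.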
# [2] = tested on: ABUTH (Velvetleaf); assay: Preemergence herbicidal evaluation; assay type: in vivo, Abutilon theophrasti; details: rated 4-5 weeks after treatment
# In short: as §1
# [3] = tested on: CASOB (Sicklepod); assay: Postemergence herbicidal evaluation; assay type: in vivo, Cassia obtusifolia; details: postemergence
# In short: (§2)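 ~2-wk seedlings; postemergence spray, 40 psi; vehicle 1:1 acetone:water + 0.5% Tween 20; rate ≈0.0156–0.500 kg/ha; greenhouse hold; scored 4–5 wk after treatment, 0–9 scale vs control; repeat tests averaged.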
# [4] = tested on: SAGPY (Arrowhead (Pygmaea)); assay: Preemergence weed control under flooded paddy conditions; assay type: in vivo, Sagittaria pygmaea; details: rated 3-4 weeks after treatment
# In short: (§3)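 Seeds or propagules sown in top 0.5 cm of silt loam soil, flooded 1.5 to 3 cm above surface throughout. Compound in 50/50 v/v aqueous/acetone pipetted into flood water at about 0.0313 to 0.500 kg/ha. Visual 0-9 rating versus control after three to four weeks in greenhouse.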
# [5] = tested on: CHEAL (Lambsquarters, Common); assay: Postemergence herbicidal evaluation; assay type: in vivo, Chenopodium album; details: postemergence
# In short: as §2
# [6] = tested on: ECHCG (Barnyardgrass); assay: Postemergence herbicidal evaluation; assay type: in vivo, Echinochloa crus-galli; details: postemergence
# In short: as §2
# [7] = tested on: ORYSAT (Rice, Tebonnet); assay: Preemergence herbicidal evaluation; assay type: in vivo, Oryza sativa, (L.) Tebonnet; details: rated 4-5 weeks after treatment
# In short: as §1
# [8] = tested on: AMBEL (Ragweed, Common); assay: Postemergence herbicidal evaluation; assay type: in vivo, Ambrosia artemisifolia; details: postemergence
# In short: as §2
# [9] = tested on: MOOVA (Monochoria); assay: Preemergence weed control under flooded paddy conditions; assay type: in vivo, Monochoria vaginalis; details: rated 3-4 weeks after treatment
# In short: as §3
# [10] = tested on: GLXMAW (Soybean, Williams); assay: Preemergence herbicidal evaluation; assay type: in vivo, Glycine max, (L.) Merr. cv Williams; details: rated 4-5 weeks after treatment
# In short: as §1
# [11] = tested on: IPOHE (Morningglory, Ivyleaf); assay: Postemergence herbicidal evaluation; assay type: in vivo, Ipomoea hederacea; details: postemergence
# In short: as §2
# [12] = tested on: TRZAWR (Wheat, Winter, cv Riband); assay: Postemergence herbicidal evaluation; assay type: in vivo, Triticum aestivum; details: postemergence
# In short: as §2
# [13] = tested on: IPOHE (Morningglory, Ivyleaf); assay: Preemergence herbicidal evaluation; assay type: in vivo, Ipomoea hederacea; details: rated 4-5 weeks after treatment
# In short: as §1
# [14] = tested on: CASOB (Sicklepod); assay: Preemergence herbicidal evaluation; assay type: in vivo, Cassia obtusifolia; details: rated 4-5 weeks after treatment
# In short: as §1
# [15] = tested on: AMBEL (Ragweed, Common); assay: Preemergence herbicidal evaluation; assay type: in vivo, Ambrosia artemisifolia; details: rated 4-5 weeks after treatment
# In short: as §1
# [16] = tested on: GLXMAW (Soybean, Williams); assay: Postemergence herbicidal evaluation; assay type: in vivo, Glycine max, (L.) Merr. cv Williams; details: postemergence
# In short: as §2
smiles,measurement,setting,value
"CCOC(=O)CN1C(=O)C(F)SC1=Nc1cc(-n2c(=O)cc(C(F)(F)F)n(C)c2=O)c(F)cc1Cl (centres unmarked) [Compound 11, Ethyl 2-{{2-chloro-5-[3,6-dihydro-3-methyl-2,6-dioxo-4-(trifluoromethyl)-1(2H)-pyrimidinyl]-4-fluorophenyl}imino}-5-fluoro-4-oxo-3-thiazolidineacetate]",CHEAL preemergence herbicidal rating,[1]; rate 0.0156 kg/ha,7.5
same,CHEAL preemergence herbicidal rating,[1]; rate 0.0313 kg/ha,9.0
same,CHEAL preemergence herbicidal rating,[1]; rate 0.0625 kg/ha,9.0
same,CHEAL preemergence herbicidal rating,[1]; rate 0.1250 kg/ha,9.0
same,CHEAL preemergence herbicidal rating,[1]; rate 0.2500 kg/ha,9.0
same,ABUTH preemergence herbicidal rating,[2]; rate 0.0156 kg/ha,7.5
same,ABUTH preemergence herbicidal rating,[2]; rate 0.0313 kg/ha,8.5
same,ABUTH preemergence herbicidal rating,[2]; rate 0.0625 kg/ha,8.5
same,ABUTH preemergence herbicidal rating,[2]; rate 0.1250 kg/ha,9.0
same,ABUTH preemergence herbicidal rating,[2]; rate 0.2500 kg/ha,9.0
same,CASOB herbicidal rating,[3]; rate 0.0156 kg/ha,0.0
same,CASOB herbicidal rating,[3]; rate 0.0313 kg/ha,0.0
same,CASOB herbicidal rating,[3]; rate 0.0625 kg/ha,0.0
same,CASOB herbicidal rating,[3]; rate 0.1250 kg/ha,3.0
same,Herbicidal rating SAGPY,[4]; 0.0313 kg/ha,0.0
same,Herbicidal rating SAGPY,[4]; 0.0625 kg/ha,0.0
same,Herbicidal rating SAGPY,[4]; 0.1250 kg/ha,0.0
same,Herbicidal rating SAGPY,[4]; 0.2500 kg/ha,0.0
same,CHEAL herbicidal rating,[5]; rate 0.0156 kg/ha,7.0
same,CHEAL herbicidal rating,[5]; rate 0.0313 kg/ha,9.0
same,CHEAL herbicidal rating,[5]; rate 0.0625 kg/ha,9.0
same,CHEAL herbicidal rating,[5]; rate 0.1250 kg/ha,9.0
same,ECHCG herbicidal rating,[6]; rate 0.0156 kg/ha,0.0
same,ECHCG herbicidal rating,[6]; rate 0.0313 kg/ha,0.0
same,ECHCG herbicidal rating,[6]; rate 0.0625 kg/ha,6.0
same,ECHCG herbicidal rating,[6]; rate 0.1250 kg/ha,7.0
same,ORYSAT preemergence herbicidal rating,[7]; rate 0.0156 kg/ha,0.0
same,ORYSAT preemergence herbicidal rating,[7]; rate 0.0313 kg/ha,0.0
same,ORYSAT preemergence herbicidal rating,[7]; rate 0.0625 kg/ha,0.0
same,ORYSAT preemergence herbicidal rating,[7]; rate 0.1250 kg/ha,2.0
same,ORYSAT preemergence herbicidal rating,[7]; rate 0.2500 kg/ha,4.0
same,AMBEL herbicidal rating,[8]; rate 0.0156 kg/ha,1.0
same,AMBEL herbicidal rating,[8]; rate 0.0313 kg/ha,9.0
same,AMBEL herbicidal rating,[8]; rate 0.0625 kg/ha,9.0
same,AMBEL herbicidal rating,[8]; rate 0.1250 kg/ha,9.0
same,Herbicidal rating MOOVA,[9]; 0.0313 kg/ha,0.0
same,Herbicidal rating MOOVA,[9]; 0.0625 kg/ha,1.0
same,Herbicidal rating MOOVA,[9]; 0.1250 kg/ha,4.0
same,Herbicidal rating MOOVA,[9]; 0.2500 kg/ha,7.0
same,GLXMAW preemergence herbicidal rating,[10]; rate 0.0156 kg/ha,1.5
same,GLXMAW preemergence herbicidal rating,[10]; rate 0.0313 kg/ha,1.5
same,GLXMAW preemergence herbicidal rating,[10]; rate 0.0625 kg/ha,3.5
same,GLXMAW preemergence herbicidal rating,[10]; rate 0.1250 kg/ha,6.0
same,GLXMAW preemergence herbicidal rating,[10]; rate 0.2500 kg/ha,8.0
same,IPOHE herbicidal rating,[11]; rate 0.0156 kg/ha,9.0
same,IPOHE herbicidal rating,[11]; rate 0.0313 kg/ha,9.0
same,IPOHE herbicidal rating,[11]; rate 0.0625 kg/ha,9.0
same,IPOHE herbicidal rating,[11]; rate 0.1250 kg/ha,9.0
same,TRZAWR herbicidal rating,[12]; rate 0.0156 kg/ha,4.5
same,TRZAWR herbicidal rating,[12]; rate 0.0313 kg/ha,4.5
same,TRZAWR herbicidal rating,[12]; rate 0.0625 kg/ha,5.5
same,TRZAWR herbicidal rating,[12]; rate 0.1250 kg/ha,6.0
same,IPOHE preemergence herbicidal rating,[13]; rate 0.0156 kg/ha,2.0
same,IPOHE preemergence herbicidal rating,[13]; rate 0.0313 kg/ha,8.0
same,IPOHE preemergence herbicidal rating,[13]; rate 0.0625 kg/ha,8.0
same,IPOHE preemergence herbicidal rating,[13]; rate 0.1250 kg/ha,9.0
same,IPOHE preemergence herbicidal rating,[13]; rate 0.2500 kg/ha,9.0
same,CASOB preemergence herbicidal rating,[14]; rate 0.0156 kg/ha,0.0
same,CASOB preemergence herbicidal rating,[14]; rate 0.0313 kg/ha,0.0
same,CASOB preemergence herbicidal rating,[14]; rate 0.0625 kg/ha,0.0
same,CASOB preemergence herbicidal rating,[14]; rate 0.1250 kg/ha,0.0
same,CASOB preemergence herbicidal rating,[14]; rate 0.2500 kg/ha,5.5
same,AMBEL preemergence herbicidal rating,[15]; rate 0.0156 kg/ha,0.0
same,AMBEL preemergence herbicidal rating,[15]; rate 0.0313 kg/ha,1.0
same,AMBEL preemergence herbicidal rating,[15]; rate 0.0625 kg/ha,5.5
same,AMBEL preemergence herbicidal rating,[15]; rate 0.1250 kg/ha,6.5
same,AMBEL preemergence herbicidal rating,[15]; rate 0.2500 kg/ha,9.0
same,GLXMAW herbicidal rating,[16]; rate 0.0156 kg/ha,5.0
same,GLXMAW herbicidal rating,[16]; rate 0.0313 kg/ha,7.5
same,GLXMAW herbicidal rating,[16]; rate 0.0625 kg/ha,9.0
same,GLXMAW herbicidal rating,[16]; rate 0.1250 kg/ha,9.0
